Data from patent US11690850B2, “Inhibitors of receptor interacting protein kinase I for the treatment of disease” (Board of Regents, The University of Texas System, priority 2019, dated 2023).

Tests used:
RIPK1 = RIPK1 (Homo sapiens (Human), UniProt Q13546); assay: ADP-Glo Kinase Assay; assay type: biochemical; conditions: 5 nM RIPK1 protein, 50 μM ATP, 6 hr reaction, average value across multiple runs
Procedure, shortened: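 ADP formed from ATP is measured by ADP-Glo luminescence with 5 nM RIPK1, preincubated 10 min with compound, then 50 μM ATP for 6 h. Buffer is 50 mM HEPES pH 7.5, 50 mM NaCl, 30 mM MgCl2, 1 mM DTT, 0.05% BSA, 0.02% CHAPS. IC50 comes from a four-parameter fit, averaged over runs.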

[1] = test system: human monocytic cell line U937; assay: Human U937 Cellular Necroptosis Assay; assay type: cell-based; conditions: U-937; U937 cells stimulated with 25 ng/mL human TNFalpha and 25 μM z-VAD-FMK, 22 hr, viability by Cell Titer-Glo 2.0; average value across multiple runs; read-out: hU937 IC50
Method: Human U937 Cellular Necroptosis Assay
The human monocytic cell line U937 (CRL-1593.2) was purchased from ATCC. The cells were routinely maintained in RPMI-1640 Medium (Gibco, Catalog #11875-093) supplemented with 10% heat inactivated fetal bovine serum (Gibco, Catalog #16140-071), 100 units/mL penicillin and 100 μg/mL streptomycin (Gibco, Catalog #15140-122), in a humidified incubator (37° C., 5% CO2). For the assay, cells were resuspended in RPMI-1640 phenol red free Media (Gibco, Catalog #11835-030) supplemented with 10% fetal bovine serum (Sigma, Catalog #F2442), 100 units/mL penicillin and 100 ug/mL streptomycin. Cells were stimulated with 25 ng/mL human TNFalpha (Cell Sciences, Catalog #CSI15659B) and 25 μM z-VAD-FMK (R&D Systems, Catalog #FMK001) followed by seeding 5000 cells per well in a volume of 40 μL to a white, CulturPlate-384 (Perkin Elmer, Catalog #6007680). Stock solutions of the test compounds were prepared in 100% DMSO (Sigma, Catalog #D2650) and serially diluted 1:3 using 100% DMSO. Compounds were additionally diluted 1:40 in assay medium, and 10 μL/well was transferred to the plate. Following the compound addition the plate was incubated at 37° C. and 5% CO2 for 22 hr. After 22 hr, viability was assessed with the addition of 20 μL of Cell Titer-Glo 2.0 (Promega, Catalog #G9243). The tissue culture plate was shaken on an orbital shaker at 300 RPM for 15 minutes at room temperature in the dark. Luminescence was measured using a PerkinElmer Envision™ plate reader. IC50 values were calculated using a four-parameter logistic curve fit using Genedata Screener software. Results are shown below in Table 5, where the average value across multiple runs is given.

RIPK1, sequence (Q13546 1-327): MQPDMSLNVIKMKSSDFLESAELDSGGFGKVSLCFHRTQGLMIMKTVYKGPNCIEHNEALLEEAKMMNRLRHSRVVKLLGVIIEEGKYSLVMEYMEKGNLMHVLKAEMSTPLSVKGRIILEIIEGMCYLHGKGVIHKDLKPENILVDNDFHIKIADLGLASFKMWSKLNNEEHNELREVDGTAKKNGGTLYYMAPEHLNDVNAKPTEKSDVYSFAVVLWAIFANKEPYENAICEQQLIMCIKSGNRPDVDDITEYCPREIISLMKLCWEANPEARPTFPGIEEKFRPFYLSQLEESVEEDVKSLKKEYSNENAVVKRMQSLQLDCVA

SMILES	IC50 (RIPK1)	IC50 [1]
Cc1c(Cl)c(=O)c(C(=O)NC2CCc3cc(Cl)ccc3NC2=O)nn1-c1ccccc1 (stereo not drawn) [Example 40, 5-Chloro-N-(7-chloro-2-oxo-2,3,4,5-tetrahydro-1H-benzo[b]azepin-3-yl)-6-methyl-4-oxo-1-phenyl-1,4-dihydropyridazine-3-carboxamide]	0.036 µM	0.047 µM
Cc1c(Br)c(=O)c(C(=O)NC2CCc3cc(Br)ccc3NC2=O)nn1-c1ccccc1 (stereo not drawn) [Example 43, 5-Bromo-N-(7-bromo-2-oxo-2,3,4,5-tetrahydro-1H-benzo[b]azepin-3-yl)-6-methyl-4-oxo-1-phenyl-1,4-dihydropyridazine-3-carboxamide]	0.023 µM	0.048 µM
Cc1c(Br)c(=O)c(C(=O)NC2CCc3cc(C#N)ccc3NC2=O)nn1-c1ccccc1 (stereo not drawn) [Example 44, 5-Bromo-N-(7-cyano-2-oxo-2,3,4,5-tetrahydro-1H-benzo[b]azepin-3-yl)-6-methyl-4-oxo-1-phenyl-1,4-dihydropyridazine-3-carboxamide]	0.062 µM	0.16 µM
Cc1c(Cl)c(=O)c(C(=O)NC2CCc3cc(Cl)ccc3N(C)C2=O)nn1-c1ccccc1 (stereo not drawn) [Example 45, 5-Chloro-N-(7-chloro-1-methyl-2-oxo-2,3,4,5-tetrahydro-1H-benzo[b]azepin-3-yl)-6-methyl-4-oxo-1-phenyl-1,4-dihydropyridazine-3-carboxamide]	0.028 µM	0.072 µM
Cc1c(C#N)c(=O)c(C(=O)NC2CCc3ccccc3N(C)C2=O)nn1-c1ccccc1 (stereo not drawn) [Example 47, 5-Cyano-6-methyl-N-(1-methyl-2-oxo-2,3,4,5-tetrahydro-1H-benzo[b]azepin-3-yl)-4-oxo-1-phenyl-1,4-dihydropyridazine-3-carboxamide]	0.072 µM	0.086 µM

More lines, main results first:

IC50 (RIPK1)	SMILES	IC50 [1]
0.668 µM	Cc1cccc(C2CC2)c1NC(=O)c1nn(-c2ccccc2)c(C)cc1=O [Example 26, N-(2-cyclopropyl-6-methylphenyl)-6-methyl-4-oxo-1-phenyl-1,4-dihydropyridazine-3-carboxamide]	3.17 µM
2.25 µM	Cc1cc(=O)c(C(=O)Nc2cc(Cl)c3c(c2)NC(=O)C3)nn1-c1ccccc1 [Example 32, N-(4-chloro-2-oxoindolin-6-yl)-6-methyl-4-oxo-1-phenyl-1,4-dihydropyridazine-3-carboxamide]	5.83 µM
2.19 µM	Cc1cc(=O)c(C(=O)Nc2c3ccccc3nc3ccccc23)nn1-c1ccccc1 [Example 33, N-(acridin-9-yl)-6-methyl-4-oxo-1-phenyl-1,4-dihydropyridazine-3-carboxamide]	8.49 µM
0.057 µM	Cc1cc(=O)c(C(=O)NC2CCc3ccccc3NC2=O)nn1-c1ccccc1 (stereo not drawn) [Example 38, 6-Methyl-4-oxo-N-(2-oxo-2,3,4,5-tetrahydro-1H-benzo[b]azepin-3-yl)-1-phenyl-1,4-dihydropyridazine-3-carboxamide]	0.082 µM
0.018 µM	Cc1c(Cl)c(=O)c(C(=O)NC2CCc3ccccc3NC2=O)nn1-c1ccccc1 (stereo not drawn) [Example 39, 5-Chloro-6-methyl-4-oxo-N-(2-oxo-2,3,4,5-tetrahydro-1H-benzo[b]azepin-3-yl)-1-phenyl-1,4-dihydropyridazine-3-carboxamide]	0.069 µM
0.035 µM	Cc1cc(=O)c(C(=O)NC2CCc3ccccc3N(C)C2=O)nn1-c1ccccc1 (stereo not drawn) [Example 41, 6-methyl-N-(1-methyl-2-oxo-2,3,4,5-tetrahydro-1H-benzo[b]azepin-3-yl)-4-oxo-1-phenyl-1,4-dihydropyridazine-3-carboxamide]	0.039 µM
0.036 µM	Cc1c(Br)c(=O)c(C(=O)NC2CCc3ccccc3NC2=O)nn1-c1ccccc1 (stereo not drawn) [Example 42, 5-Bromo-6-methyl-4-oxo-N-(2-oxo-2,3,4,5-tetrahydro-1H-benzo[b]azepin-3-yl)-1-phenyl-1,4-dihydropyridazine-3-carboxamide]	0.141 µM
